pIC50: −log10 of the molar value. Non-standard residues stand in square brackets, D forms with d. Residues, ends and D or L forms follow the SMILES beside them. dPhe(4-Cl) = N[C@H](Cc1ccc(Cl)cc1)C(=O)O; d2Nal = N[C@H](Cc1ccc2ccccc2c1)C(=O)O; dCit = NC(=O)NCCC[C@@H](N)C(=O)O; d3Pal = N[C@H](Cc1cccnc1)C(=O)O
Tests used:
[1] = target: T1, ATP-binding cassette sub-family C member 4 (Homo sapiens, UniProt O15439); test: Inhibition of human MRP4 overexpressed in Sf9 cell membrane vesicles assessed as uptake of [3H]-estradiol-17beta-D-glucuronide in presence of ATP and GSH measured after 20 mins by membrane vesicle transport assay; type: ADME, cell-based
T1 sequence (O15439 whole entry): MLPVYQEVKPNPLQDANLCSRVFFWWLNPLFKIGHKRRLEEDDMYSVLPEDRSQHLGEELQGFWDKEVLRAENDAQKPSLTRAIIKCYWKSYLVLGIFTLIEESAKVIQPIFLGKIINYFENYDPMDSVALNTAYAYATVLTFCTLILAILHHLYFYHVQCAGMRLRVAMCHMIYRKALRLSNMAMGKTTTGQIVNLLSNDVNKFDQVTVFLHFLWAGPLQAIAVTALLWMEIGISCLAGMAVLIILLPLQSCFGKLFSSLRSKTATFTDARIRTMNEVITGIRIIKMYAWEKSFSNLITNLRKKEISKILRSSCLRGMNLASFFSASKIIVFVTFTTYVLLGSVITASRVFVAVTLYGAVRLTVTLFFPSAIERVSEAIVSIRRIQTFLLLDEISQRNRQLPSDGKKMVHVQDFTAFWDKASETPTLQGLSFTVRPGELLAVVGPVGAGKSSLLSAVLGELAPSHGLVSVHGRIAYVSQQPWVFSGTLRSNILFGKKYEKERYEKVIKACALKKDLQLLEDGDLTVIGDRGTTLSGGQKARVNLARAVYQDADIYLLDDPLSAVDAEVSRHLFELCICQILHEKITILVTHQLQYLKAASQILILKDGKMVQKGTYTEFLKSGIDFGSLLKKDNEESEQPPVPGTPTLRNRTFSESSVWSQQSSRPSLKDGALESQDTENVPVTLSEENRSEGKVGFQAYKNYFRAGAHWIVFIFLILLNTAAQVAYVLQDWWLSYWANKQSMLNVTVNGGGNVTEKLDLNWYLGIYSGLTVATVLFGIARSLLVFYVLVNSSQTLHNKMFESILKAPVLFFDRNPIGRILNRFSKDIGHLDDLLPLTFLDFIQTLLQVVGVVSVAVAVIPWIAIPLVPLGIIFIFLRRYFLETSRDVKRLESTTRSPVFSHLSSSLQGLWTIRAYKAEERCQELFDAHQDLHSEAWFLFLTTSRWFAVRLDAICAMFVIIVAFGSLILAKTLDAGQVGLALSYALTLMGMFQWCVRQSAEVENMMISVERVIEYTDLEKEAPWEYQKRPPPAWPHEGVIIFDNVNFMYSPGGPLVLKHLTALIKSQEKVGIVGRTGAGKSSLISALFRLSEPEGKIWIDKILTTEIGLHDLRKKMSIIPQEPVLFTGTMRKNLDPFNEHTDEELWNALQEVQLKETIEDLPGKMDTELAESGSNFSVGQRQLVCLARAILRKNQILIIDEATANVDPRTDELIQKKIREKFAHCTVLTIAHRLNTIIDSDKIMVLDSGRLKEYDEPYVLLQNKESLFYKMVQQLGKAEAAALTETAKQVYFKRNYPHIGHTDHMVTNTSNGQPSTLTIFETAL

[2] = target: ATP-binding cassette sub-family C member 3 (Homo sapiens, UniProt O15438); test: Inhibition of human MRP3 overexpressed in Sf9 insect cell membrane vesicles assessed as uptake of [3H]-estradiol-17beta-D-glucuronide in presence of ATP and GSH measured after 10 mins by membrane vesicle transport assay; type: ADME, cell-based
[3] = Drug concentration at steady state in human at 800 mg administered once per week for 6 weeks through intravesical instillation measured after 6 hrs; type: ADME; conditions: in vivo, read-out: Css
[4] = Ratio of drug concentration at steady state in human at 800 mg administered once per week for 6 weeks through intravesical instillation measured after 6 hrs to IC50 for human MRP4 overexpressed in Sf9 insect cells; type: ADME; conditions: in vivo, other
[5] = Ratio of drug concentration at steady state in human at 800 mg administered once per week for 6 weeks through intravesical instillation measured after 6 hrs to IC50 for human MRP3 overexpressed in Sf9 insect cells; type: ADME; conditions: in vivo, other
[6] = Ratio of drug concentration at steady state in human at 800 mg administered once per week for 6 weeks through intravesical instillation measured after 6 hrs to IC50 for human BSEP overexpressed in Sf9 insect cells; type: ADME; conditions: in vivo, other
[7] = AUC (0 to 6 hrs) in human at 800 mg administered once per week for 6 weeks through intravesical instillation measured after 6 hrs; type: ADME; set-up: dose 800 mg, time < 6 hr; conditions: in vivo
[8] = Ratio of drug concentration at steady state in human at 800 mg administered once per week for 6 weeks through intravesical instillation measured after 6 hrs to IC50 for human MRP2 overexpressed in Sf9 insect cells; type: ADME; conditions: in vivo, other
Bile salt export pump = Bile salt export pump (Homo sapiens, UniProt O95342); test: Inhibition of human BSEP overexpressed in Sf9 cell membrane vesicles assessed as uptake of [3H]-taurocholate in presence of ATP measured after 15 to 20 mins by membrane vesicle transport assay; type: ADME, cell-based
[9] = target: ATP-binding cassette sub-family C member 2 (Homo sapiens, UniProt Q92887); test: Inhibition of human MRP2 overexpressed in Sf9 cell membrane vesicles assessed as uptake of [3H]-estradiol-17beta-D-glucuronide in presence of ATP and GSH measured after 20 mins by membrane vesicle transport assay
[10] = Ratio of drug concentration at steady state in human at 1 to 4 mg, po QD after 24 hrs to IC50 for human BSEP overexpressed in Sf9 insect cells; type: ADME, organism-based; conditions: in vivo
[11] = Ratio of drug concentration at steady state in human at 1 to 4 mg, po QD after 24 hrs to IC50 for human MRP4 overexpressed in Sf9 insect cells; type: ADME, organism-based; conditions: in vivo
[12] = AUC in human at 1 to 4 mg, po QD after 24 hrs; type: ADME, organism-based; conditions: in vivo
[13] = Ratio of drug concentration at steady state in human at 1 to 4 mg, po QD after 24 hrs to IC50 for human MRP3 overexpressed in Sf9 insect cells; type: ADME, organism-based; conditions: in vivo
[14] = Drug concentration at steady state in human at 1 to 4 mg, po QD after 24 hrs; type: ADME, organism-based; conditions: in vivo, read-out: Css
Homo sapiens [15] = test: Ratio of drug concentration at steady state in human at 0.25 mg, sc QD after 24 hrs to IC50 for human BSEP overexpressed in Sf9 insect cells; type: ADME, organism-based; conditions: in vivo
[16] = Drug concentration at steady state in human at 0.25 mg, sc QD after 24 hrs; type: ADME, organism-based; conditions: in vivo, read-out: Css
[17] = AUC in human at 3 mg, sc administered as single dose during early to mild follicular phase after 24 hrs; type: ADME, organism-based; set-up: dose 3 mg, time < 24 hr, route subcutaneous; conditions: female, in vivo
Homo sapiens [18] = test: Drug concentration at steady state in human 3 mg, sc administered as single dose during early to mild follicular phase after 24 hrs; type: ADME, organism-based; conditions: in vivo
Homo sapiens [19] = test: Ratio of drug concentration at steady state in human at 3 mg, sc administered as single dose during early to mild follicular phase after 24 hrs to IC50 for human BSEP overexpressed in Sf9 insect cells; type: ADME, organism-based; conditions: in vivo
[20] = AUC in human at 0.25 mg, sc QD after 24 hrs; type: ADME, organism-based; set-up: dose 0.25 mg, time < 24 hr, route subcutaneous; conditions: in vivo
Homo sapiens [21] = test: Drug concentration at steady state in human at 5 to 10 mg, po after 24 hrs; conditions: in vivo
[22] = AUC in human at 5 to 10 mg, po after 24 hrs; type: ADME, organism-based; conditions: in vivo

ATP-binding cassette sub-family C member 3, sequence (O15438 whole entry): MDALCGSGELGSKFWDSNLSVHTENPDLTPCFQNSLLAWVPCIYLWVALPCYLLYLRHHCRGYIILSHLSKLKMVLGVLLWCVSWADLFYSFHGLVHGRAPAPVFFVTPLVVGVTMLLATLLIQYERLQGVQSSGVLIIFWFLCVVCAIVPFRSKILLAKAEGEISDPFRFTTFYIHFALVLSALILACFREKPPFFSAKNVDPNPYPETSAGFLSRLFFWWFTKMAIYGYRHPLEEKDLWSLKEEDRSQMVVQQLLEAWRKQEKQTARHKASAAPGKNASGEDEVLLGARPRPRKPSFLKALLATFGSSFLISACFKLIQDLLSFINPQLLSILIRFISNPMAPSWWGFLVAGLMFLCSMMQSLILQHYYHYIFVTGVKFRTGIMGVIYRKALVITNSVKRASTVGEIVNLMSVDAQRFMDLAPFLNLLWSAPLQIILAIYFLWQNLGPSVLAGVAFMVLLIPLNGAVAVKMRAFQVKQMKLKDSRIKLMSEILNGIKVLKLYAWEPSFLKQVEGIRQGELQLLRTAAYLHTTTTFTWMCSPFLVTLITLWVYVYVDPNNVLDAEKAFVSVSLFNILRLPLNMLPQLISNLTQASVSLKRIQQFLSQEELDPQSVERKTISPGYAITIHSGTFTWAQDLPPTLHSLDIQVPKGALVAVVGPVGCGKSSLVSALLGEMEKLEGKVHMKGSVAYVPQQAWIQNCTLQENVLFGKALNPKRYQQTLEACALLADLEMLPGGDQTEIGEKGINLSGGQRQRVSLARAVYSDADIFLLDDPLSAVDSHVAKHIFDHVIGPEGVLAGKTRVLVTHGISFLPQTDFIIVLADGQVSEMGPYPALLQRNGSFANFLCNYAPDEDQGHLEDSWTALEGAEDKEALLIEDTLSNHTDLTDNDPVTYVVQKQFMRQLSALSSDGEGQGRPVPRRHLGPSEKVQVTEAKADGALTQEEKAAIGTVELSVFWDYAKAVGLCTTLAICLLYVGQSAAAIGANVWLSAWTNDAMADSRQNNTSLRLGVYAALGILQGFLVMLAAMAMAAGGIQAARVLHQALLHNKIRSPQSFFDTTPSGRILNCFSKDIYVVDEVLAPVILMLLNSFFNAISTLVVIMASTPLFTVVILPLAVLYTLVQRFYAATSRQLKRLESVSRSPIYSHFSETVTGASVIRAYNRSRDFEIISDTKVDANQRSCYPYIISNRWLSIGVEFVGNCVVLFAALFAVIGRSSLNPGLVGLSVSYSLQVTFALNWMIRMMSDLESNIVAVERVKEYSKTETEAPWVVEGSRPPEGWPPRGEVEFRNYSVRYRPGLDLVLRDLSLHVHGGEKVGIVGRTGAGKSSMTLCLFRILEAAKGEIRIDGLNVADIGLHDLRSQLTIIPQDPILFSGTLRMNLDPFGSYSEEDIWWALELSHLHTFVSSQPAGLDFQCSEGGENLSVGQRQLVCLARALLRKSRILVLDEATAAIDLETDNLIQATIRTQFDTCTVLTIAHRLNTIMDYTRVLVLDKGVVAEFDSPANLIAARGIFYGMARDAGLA
ATP-binding cassette sub-family C member 2, sequence (Q92887 whole entry): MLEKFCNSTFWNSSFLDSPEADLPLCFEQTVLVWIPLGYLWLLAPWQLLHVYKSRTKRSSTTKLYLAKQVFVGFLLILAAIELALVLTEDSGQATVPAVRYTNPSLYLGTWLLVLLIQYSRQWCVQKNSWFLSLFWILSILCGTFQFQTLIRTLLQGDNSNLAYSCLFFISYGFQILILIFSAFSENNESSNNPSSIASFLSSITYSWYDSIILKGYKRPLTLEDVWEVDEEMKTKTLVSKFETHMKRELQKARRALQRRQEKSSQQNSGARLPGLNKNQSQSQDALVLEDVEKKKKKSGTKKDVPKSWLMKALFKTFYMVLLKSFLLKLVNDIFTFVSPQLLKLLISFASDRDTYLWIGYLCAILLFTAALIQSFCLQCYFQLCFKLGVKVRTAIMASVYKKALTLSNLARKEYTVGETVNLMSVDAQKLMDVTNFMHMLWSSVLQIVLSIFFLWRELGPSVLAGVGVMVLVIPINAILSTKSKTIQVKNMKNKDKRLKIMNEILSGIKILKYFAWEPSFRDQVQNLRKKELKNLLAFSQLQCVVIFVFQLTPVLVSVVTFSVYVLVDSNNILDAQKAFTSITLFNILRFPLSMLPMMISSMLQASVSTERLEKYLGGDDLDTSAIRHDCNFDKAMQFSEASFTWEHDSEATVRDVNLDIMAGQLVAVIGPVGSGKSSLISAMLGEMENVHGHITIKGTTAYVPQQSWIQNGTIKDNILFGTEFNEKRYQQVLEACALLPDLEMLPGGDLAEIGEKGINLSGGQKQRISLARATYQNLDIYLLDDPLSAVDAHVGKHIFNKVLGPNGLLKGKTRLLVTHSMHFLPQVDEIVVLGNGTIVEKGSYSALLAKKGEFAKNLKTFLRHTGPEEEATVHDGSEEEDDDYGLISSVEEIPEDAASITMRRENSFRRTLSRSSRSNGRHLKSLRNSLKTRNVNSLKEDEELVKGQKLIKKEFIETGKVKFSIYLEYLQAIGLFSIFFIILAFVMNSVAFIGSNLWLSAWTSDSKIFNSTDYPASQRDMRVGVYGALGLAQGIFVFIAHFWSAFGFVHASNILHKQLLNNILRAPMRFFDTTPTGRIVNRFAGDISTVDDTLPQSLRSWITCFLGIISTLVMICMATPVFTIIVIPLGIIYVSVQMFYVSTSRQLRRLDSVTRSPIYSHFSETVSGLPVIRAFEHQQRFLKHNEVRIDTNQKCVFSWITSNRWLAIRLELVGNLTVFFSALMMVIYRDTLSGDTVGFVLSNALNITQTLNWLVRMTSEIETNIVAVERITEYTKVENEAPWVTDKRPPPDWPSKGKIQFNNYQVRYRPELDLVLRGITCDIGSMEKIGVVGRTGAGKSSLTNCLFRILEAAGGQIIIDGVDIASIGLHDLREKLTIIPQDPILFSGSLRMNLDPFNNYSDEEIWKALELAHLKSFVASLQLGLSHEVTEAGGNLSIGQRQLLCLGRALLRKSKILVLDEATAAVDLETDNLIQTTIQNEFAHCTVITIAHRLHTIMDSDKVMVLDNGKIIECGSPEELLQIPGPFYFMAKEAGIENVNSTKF
Bile salt export pump, sequence (O95342 whole entry): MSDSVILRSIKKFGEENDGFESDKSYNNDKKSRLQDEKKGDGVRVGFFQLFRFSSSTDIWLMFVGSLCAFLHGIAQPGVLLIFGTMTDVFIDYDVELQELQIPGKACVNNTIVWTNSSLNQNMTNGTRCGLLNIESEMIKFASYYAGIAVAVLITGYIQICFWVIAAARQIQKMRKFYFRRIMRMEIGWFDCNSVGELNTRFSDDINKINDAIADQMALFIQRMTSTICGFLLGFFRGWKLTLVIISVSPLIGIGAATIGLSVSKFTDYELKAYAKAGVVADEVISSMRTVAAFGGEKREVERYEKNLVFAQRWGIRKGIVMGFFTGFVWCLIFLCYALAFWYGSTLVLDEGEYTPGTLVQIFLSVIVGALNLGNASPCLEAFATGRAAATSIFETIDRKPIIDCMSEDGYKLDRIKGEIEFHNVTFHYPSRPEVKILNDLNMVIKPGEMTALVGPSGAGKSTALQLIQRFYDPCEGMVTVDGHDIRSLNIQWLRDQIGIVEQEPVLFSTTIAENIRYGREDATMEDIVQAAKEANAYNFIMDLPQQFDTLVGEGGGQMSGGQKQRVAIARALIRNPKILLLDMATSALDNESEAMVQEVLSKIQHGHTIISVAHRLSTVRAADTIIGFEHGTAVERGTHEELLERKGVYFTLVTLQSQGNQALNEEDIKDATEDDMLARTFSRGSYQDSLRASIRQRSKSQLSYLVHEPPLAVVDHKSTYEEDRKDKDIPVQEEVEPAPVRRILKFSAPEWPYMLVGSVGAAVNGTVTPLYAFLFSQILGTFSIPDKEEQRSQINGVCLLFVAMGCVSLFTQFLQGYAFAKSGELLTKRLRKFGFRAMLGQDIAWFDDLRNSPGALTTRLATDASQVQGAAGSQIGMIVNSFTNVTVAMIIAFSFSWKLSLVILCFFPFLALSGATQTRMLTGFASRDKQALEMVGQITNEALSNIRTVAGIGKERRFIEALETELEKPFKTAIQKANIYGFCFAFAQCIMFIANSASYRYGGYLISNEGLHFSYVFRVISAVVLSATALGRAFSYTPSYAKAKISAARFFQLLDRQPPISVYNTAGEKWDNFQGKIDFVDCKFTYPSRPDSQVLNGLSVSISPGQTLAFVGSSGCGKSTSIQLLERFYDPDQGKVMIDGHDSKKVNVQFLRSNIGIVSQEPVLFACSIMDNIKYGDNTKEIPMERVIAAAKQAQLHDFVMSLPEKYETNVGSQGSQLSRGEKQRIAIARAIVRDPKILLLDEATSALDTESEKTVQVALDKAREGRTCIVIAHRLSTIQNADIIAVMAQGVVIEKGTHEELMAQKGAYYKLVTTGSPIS

For CCCCC(=O)OCC(=O)[C@]1(O)Cc2c(O)c3c(c(O)c2[C@@H](O[C@H]2C[C@H](NC(=O)C(F)(F)F)[C@H](O)[C@H](C)O2)C1)C(=O)c1c(OC)cccc1C3=O [VALRUBICIN], the pIC50 [1] was 4.43, the pIC50 [2] was 4.12 and the concentration at 6 h [3] was 131 nM. For the same compound, the Ratio [4] was 0.004, the Ratio [5] was 0.002 and the Ratio [6] was 0.005. For the same compound, the AUC at 6 h [7] was 0.788 µM·h, the Ratio [8] was 0.002 and the pIC50 (Bile salt export pump) was 4.62. It also gave a pIC50 [9] of 4.19.
Compound CCC1=C(C)CN(C(=O)NCCc2ccc(S(=O)(=O)NC(=O)N[C@H]3CC[C@H](C)CC3)cc2)C1=O [GLIMEPIRIDE] has a Ratio [10] of 0.009, a pIC50 [1] of 4.19 and a pIC50 [2] of 5.19. The Ratio [11] was 0.002, the AUC at 24 h [12] was 3.4 µM·h and the Ratio [13] was 0.022. It also gave a concentration at 24 h [14] of 141 nM.
Work on CC(=O)N[C@H](Cc1ccc2ccccc2c1)C(=O)N[C@H](Cc1ccc(Cl)cc1)C(=O)N[C@H](Cc1cccnc1)C(=O)N[C@@H](CO)C(=O)N[C@@H](Cc1ccc(O)cc1)C(=O)N[C@H](CCCNC(N)=O)C(=O)N[C@@H](CC(C)C)C(=O)N[C@@H](CCCNC(=N)N)C(=O)N1CCC[C@H]1C(=O)N[C@H](C)C(N)=O.CC(=O)O [CETRORELIX ACETATE] (Ac-[d2Nal][dPhe(4-Cl)][d3Pal]SY[dCit]LRP[dA]-NH2) yielded a pIC50 [1] of under 3.88, a Ratio (Homo sapiens [15]) of 0.011 and a pIC50 [2] of under 3.88. The concentration at 24 h [16] was 16 nM, the AUC at 24 h [17] was 0.375 µM·h and the Css (Homo sapiens [18]) was 16 nM. The pIC50 (Bile salt export pump) was 5.83, the pIC50 [9] was under 3.88 and the Ratio (Homo sapiens [19]) was 0.011. It also gave an AUC at 24 h [20] of 0.375 µM·h.
COc1cc2c(cc1OC)C(=O)C(CC1CCN(Cc3ccccc3)CC1)C2 (configuration not stated) [DONEPEZIL] gave a Css (Homo sapiens [21]) of 406 nM, a pIC50 [1] of 4.14 and a pIC50 [2] of under 3.88. The pIC50 [9] was under 3.88 and the AUC at 24 h [22] was 9.76 µM·h.
